Measured values from PMC7377239, “Cardiovascular Effects of Polychlorinated Biphenyls and Their Major Metabolites” (Environmental Health Perspectives, 2020).
Read-outs that look alike come from different tables or passages of the source.

How the values were obtained:
[1] = system: iCell endothelial cells (human iPSC-derived ECs); assay: High-content imaging cytotoxicity in iCell endothelial cells, 24 h; format: cell-based; details: Homo sapiens, Endothelial cell, 24 hr; for viability at 0.1 µM / activity at 0.1 µM: 0.10 µM
In short: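 Human iPSC-derived endothelial cells (passages 1–5) were grown to a fibronectin-coated monolayer, then exposed 24 h at 37 °C with 0.5% DMSO vehicle. Staining was Hoechst 33342, MitoTracker Orange and calcein AM, read by high-content imaging. Point of departure came from 4-parameter logistic fits, with a 1-SD vehicle cutoff and 100 µM as the top concentration.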

[2] = system: iCell endothelial cells (human iPSC-derived ECs); assay: Tube formation (tubulogenesis) assay in iCell endothelial cells, 18 h; format: cell-based; details: Homo sapiens, Endothelial cell, 18 hr; for activity at 0.1 µM: 0.10 µM
In short: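 iCell ECs (passages 1–5) seeded 7,500 cells/well on reduced-growth-factor Geltrex in starvation medium, exposed overnight at 37°C to compounds in triplicate concentration–response (0.5% DMSO vehicle). Calcein AM staining, 4× imaging, angiogenesis image analysis; readouts normalized to vehicle, four-parameter logistic fit, POD at 1 SD of vehicle; 100 μM assigned NOAEL if no response.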

[3] = endothelial cells (endo), cyto, read-out: POD endo.cyto.24hr
[4] = endothelial cells (endo), mito, read-out: POD endo.mito.24hr
[5] = endothelial cells (endo), mitoint, read-out: POD endo.mitoint.24hr
[6] = endothelial cells (endo), nma, read-out: POD endo.nma.24hr
[7] = endothelial cells (endo), tc, read-out: POD endo.tc.24hr
[8] = endothelial cells (endo), tube formation mtl, read-out: POD endo.mtl.18hr
[9] = endothelial cells (endo), tube formation tlps, read-out: POD endo.tlps.18hr
[10] = endothelial cells (endo), tube formation tta, read-out: POD endo.tta.18hr
[11] = endothelial cells (endo), tube formation ttl, read-out: POD endo.ttl.18hr
[12] = iPSC-EC, 0.00 µM control = 100.00, read-out: endo.cyto.24hr
[13] = iPSC-EC, 0.00 µM control = 100.00, read-out: endo.mito.24hr
[14] = iPSC-EC, 0.00 µM control = 100.00, read-out: endo.mitoint.24hr
[15] = iPSC-EC, 0.00 µM control = 100.00, read-out: endo.nma.24hr
[16] = iPSC-EC, 0.00 µM control = 100.00, read-out: endo.tc.24hrs
[17] = iPSC-EC tube formation, 0.00 µM control = 100.00, read-out: endo.mtl.18hr
[18] = iPSC-EC tube formation, 0.00 µM control = 100.00, read-out: endo.tlps.18hr
[19] = iPSC-EC tube formation, 0.00 µM control = 100.00, read-out: endo.tta.18hr
[20] = iPSC-EC tube formation, 0.00 µM control = 100.00, read-out: endo.ttl.18hr

Oc1ccc(-c2cccc(Cl)c2)cc1Cl [4-OH-PCB 11]
minimal effective concentration [1, 3]: 43.6 µM | minimal effective concentration [1, 4]: 43.6 µM | minimal effective concentration [1, 5]: 13 µM | minimal effective concentration [1, 6]: 9.66 µM | minimal effective concentration [1, 7]: 62.1 µM | minimal effective concentration [2, 8]: 17.7 µM | minimal effective concentration [2, 9]: 52.5 µM | minimal effective concentration [2, 10]: 15.8 µM | minimal effective concentration [2, 11]: 16.1 µM

Oc1cc(Cl)c(-c2cc(Cl)ccc2Cl)cc1Cl [4-OH-PCB 52]
minimal effective concentration [1, 3]: 13.2 µM | minimal effective concentration [1, 4]: 13.2 µM | minimal effective concentration [1, 5]: 43.8 µM | minimal effective concentration [1, 6]: 63.5 µM | minimal effective concentration [1, 7]: 16.6 µM | minimal effective concentration [2, 8]: 9.52 µM | minimal effective concentration [2, 9]: 8.32 µM | minimal effective concentration [2, 10]: 15 µM | minimal effective concentration [2, 11]: 15.2 µM

COc1ccc(-c2cccc(Cl)c2)cc1Cl [4-OMe PCB11]
viability at 0.01 µM [1, 12]: 88.3% | activity at 0.01 µM [1, 13]: 88.6% | activity at 0.01 µM [1, 14]: 94.9% | activity at 0.01 µM [1, 15]: 107% | viability at 0.01 µM [1, 16]: 88.3% | viability at 0.1 µM [1, 12]: 101% | activity at 0.1 µM [1, 13]: 100% | activity at 0.1 µM [1, 14]: 87% | activity at 0.1 µM [1, 15]: 104% | viability at 0.1 µM [1, 16]: 101% | viability at 1 µM [1, 12]: 99.8% | activity at 1 µM [1, 13]: 99.2% | activity at 1 µM [1, 14]: 87.7% | activity at 1 µM [1, 15]: 100% | viability at 1 µM [1, 16]: 99.8% | viability at 10 µM [1, 12]: 100% | activity at 10 µM [1, 13]: 100% | activity at 10 µM [1, 14]: 97.5% | activity at 10 µM [1, 15]: 101% | viability at 10 µM [1, 16]: 100% | viability at 100 µM [1, 12]: 97.3% | activity at 100 µM [1, 13]: 98% | activity at 100 µM [1, 14]: 98.6% | activity at 100 µM [1, 15]: 102% | viability at 100 µM [1, 16]: 97.3% | minimal effective concentration ([1]; iPSC-EC, top concentration 100.00 µM, read-out: endo.cyto.24hr POD): 100 µM | minimal effective concentration ([1]; iPSC-EC, top concentration 100.00 µM, read-out: endo.mito.24hr POD): 100 µM | minimal effective concentration ([1]; iPSC-EC, top concentration 100.00 µM, read-out: endo.mitoint.24hr POD): 100 µM | minimal effective concentration ([1]; iPSC-EC, top concentration 100.00 µM, read-out: endo.nma.24hr POD): 100 µM | minimal effective concentration ([1]; iPSC-EC, top concentration 100.00 µM, read-out: endo.tc.24hrs POD): 100 µM | activity at 0.01 µM [2, 17]: 115% | activity at 0.01 µM [2, 18]: 108% | activity at 0.01 µM [2, 19]: 168% | activity at 0.01 µM [2, 20]: 169% | activity at 0.1 µM [2, 17]: 114% | activity at 0.1 µM [2, 18]: 108% | activity at 0.1 µM [2, 19]: 134% | activity at 0.1 µM [2, 20]: 137% | activity at 1 µM [2, 17]: 113% | activity at 1 µM [2, 18]: 122% | activity at 1 µM [2, 19]: 139% | activity at 1 µM [2, 20]: 145% | activity at 10 µM [2, 17]: 95.5% | activity at 10 µM [2, 18]: 82.3% | activity at 10 µM [2, 19]: 105% | activity at 10 µM [2, 20]: 106% | activity at 100 µM [2, 17]: 88.4% | activity at 100 µM [2, 18]: 63.4% | activity at 100 µM [2, 19]: 101% | activity at 100 µM [2, 20]: 100% | minimal effective concentration ([2]; iPSC-EC tube formation, top concentration 100.00 µM, read-out: endo.mtl.18hr POD): 100 µM | minimal effective concentration ([2]; iPSC-EC tube formation, top concentration 100.00 µM, read-out: endo.tlps.18hr POD): 28.4 µM | minimal effective concentration ([2]; iPSC-EC tube formation, top concentration 100.00 µM, read-out: endo.tta.18hr POD): 0.00169 µM | minimal effective concentration ([2]; iPSC-EC tube formation, top concentration 100.00 µM, read-out: endo.ttl.18hr POD): 0.00197 µM
